The source of these data is US20260226071A1, “2, 4-DIANILINOPYRIMIDINE-BASED AURORA-A KINASE SELECTIVE DEGRADATION INDUCING COMPOUNDS” (UPPTHERA, INC., priority 2023, published 2026).

For the test, the target named is T1, Aurora kinase A (AURKA) (Homo sapiens, UniProt O14965).
T1 construct: endogenous in cells; host or cells: HeLa LgBit (AURKA-HiBit KI), CRISPR/Cas9 knock-in at the endogenous AURKA locus
T1 sequence (O14965 1-403): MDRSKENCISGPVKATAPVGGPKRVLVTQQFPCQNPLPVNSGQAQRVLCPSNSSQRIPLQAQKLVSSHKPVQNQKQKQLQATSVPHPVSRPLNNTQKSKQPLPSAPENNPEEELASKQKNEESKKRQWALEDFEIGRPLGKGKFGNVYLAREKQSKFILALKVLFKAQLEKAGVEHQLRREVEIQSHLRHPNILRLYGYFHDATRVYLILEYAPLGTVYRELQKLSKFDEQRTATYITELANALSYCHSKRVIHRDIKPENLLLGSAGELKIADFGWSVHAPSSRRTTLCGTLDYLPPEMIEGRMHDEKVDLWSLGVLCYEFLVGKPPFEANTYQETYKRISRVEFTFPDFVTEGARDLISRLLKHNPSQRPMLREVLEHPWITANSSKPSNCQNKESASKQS
In words: Luciferase assay for AURKA in HeLa LgBit (AURKA-HiBit KI) cell line. It counts as cell-based. The following applies: HeLa LgBit (AURKA-HiBit KI) cells, measured after 12 hours. The text has this: HeLa cell lines that stably express LgBit were constructed via LgBit vector transfection. Then, donor DNA and guide RNA for insertion of HiBit amino acid sequence at C-terminus of inherent Aurora kinase A (AURKA) genes were designed and constructed. Thereafter, they were transfected into the cell lines with CRISPR/Cas9 expression vector system. HiBit gene knock-in single cells were selected, passaged and used for the experiments.
For cell culture, DMEM (Gibco, Cat. No. 11995-065; Lot. No. 2562497), FBS (Gibco, Cat. No. 16000-044; Lot. No. 2511328P), Penicillin/Streptomycin (PS) (Gibco, Cat. No. 15140-122; Lot. No. 2585636), 90 mm^2 cell culture dish (SPL, Cat. No. 20100), 96-well white plate, PBS pH 7.4 (Gibco, […]), TrypLE™ Express (Gibco, Cat. No. 12605-010; Lot. No. 2522525), counting chamber (hematocytometer) (Hirschmann, Cat. No. 8100204; Lot. No. 8021087) and 0.4% Trypan Blue solution (DYNEBIO, Cat. No. CBT3710; Lot. No. 20231017) were used. Cells were cultured in DMEM supplemented with 10% FBS and 1% PS and incubated in CO2 incubator (Thermo, Cat. No. 4111) at 37° C., 5% CO2 condition.
HeLa LgBit (AURKA-HiBit KI) cell lines were cultured in 90 mm^2 cell culture dish, and 3×10^4 cells in […] of total medium volume were seeded and incubated for 18 hours in CO2 incubator. Then, Eudurazine (Promega, Cat. No. N247B; Lot. No. 495218) was added to each well to make up 1% of the total volume, followed by further incubation for 2 hours in CO2 incubator.
The present compounds were fully dissolved in DMSO (Sigma-Aldrich Cat. No. D2438, Lot. No. RNBL7287) and 10 nM or 100 nM of total concentration were used in the experiment. After adding the compounds in each well of 96-well white plate, the plate was placed in the plate reader (BMG Labtech, CLARIOstar Plus) for real-time analysis. The wavelength for analysis was set to […], and the luminescence value was measured after 12 hours. The luminescence value was analyzed through an Excel program.
Background: HiBiT is a short tag that completes a luciferase, so light tracks the accessible tagged protein.

Structures are written as SMILES.

Consider `O=C1CCC(c2ccc(N3CCN(CCN4CC[C@@H](NC(=O)c5ccc(Nc6ncc(F)c(Nc7ccc(C(=O)Nc8ccccc8Cl)cc7)n6)cc5)C4)CC3)cc2)C(=O)N1` (stereo partly drawn) [Compound 64, N-(2-chlorophenyl)-4-((2-((4-(((3R)-1-(2-(4-(4-(2,6-dioxopiperidin-3-yl)phenyl)piperazin-1-yl)ethyl)pyrrolidin-3-yl)carbamoyl)phenyl)amino)-5-fluoropyrimidin-4-yl)amino)benzamide], for which the “luminescence value (Level)” value reads like this: (10 nM compound) “B (B is 0.3 to 0.5)”; (100 nM compound) “A (A is <0.2)”.
In the same order, the values of `O=C1CCC(c2ccc(N3CCN(CCN4CC[C@H](NC(=O)c5ccc(Nc6ncc(F)c(Nc7ccc(C(=O)Nc8ccccc8Cl)cc7)n6)cc5)C4)CC3)cc2)C(=O)N1` (stereo partly drawn) [Compound 68, N-(2-chlorophenyl)-4-((2-((4-(((3S)-1-(2-(4-(4-(2,6-dioxopiperidin-3-yl)phenyl)piperazin-1-yl)ethyl)pyrrolidin-3-yl)carbamoyl)phenyl)amino)-5-fluoropyrimidin-4-yl)amino)benzamide] are “B (B is 0.3 to 0.5)” and “A (A is <0.2)”.
In the same order, the values of `COc1cc(C(=O)NN2CCC(CCN3CCN(c4ccc(C5CCC(=O)NC5=O)cc4)CC3)CC2)ccc1Nc1ncc(F)c(Nc2ccc(C(=O)Nc3ccccc3Cl)cc2)n1` (stereo not shown) [Compound 84, 4-((4-((4-((2-chlorophenyl)carbamoyl)phenyl)amino)-5-fluoropyrimidin-2-yl)amino)-N-(4-(2-(4-(4-(2,6-dioxopiperidin-3-yl)phenyl)piperazin-1-yl)ethyl)piperidin-1-yl)-3-methoxybenzamide] are “C (C is 0.5 to 0.7)” and “B (B is 0.2 to 0.4)”.
As for `O=C1CC[C@H](NC(=O)c2ccc(N3CCN(CCC4CCN(NC(=O)c5ccc(Nc6ncc(F)c(Nc7ccc(C(=O)Nc8ccccc8Cl)cc7)n6)cc5)CC4)CC3)cn2)C(=O)N1` [Compound 87, (S)-5-(4-(2-(1-(4-((4-((4-((2-chlorophenyl)carbamoyl)phenyl)amino)-5-fluoropyrimidin-2-yl)amino)benzamido)piperidin-4-yl)ethyl)piperazin-1-yl)-N-(2,6-dioxopiperidin-3-yl)picolinamide], the “luminescence value (Level)” value is “B (B is 0.3 to 0.5)” (10 nM compound) and “B (B is 0.2 to 0.4)” (100 nM compound).
As to `O=C1CC[C@H](NC(=O)c2ccc(N3CCN(CCC4CCN(NC(=O)c5ccc(Nc6ncc(F)c(Nc7ccc(C(=O)Nc8ccccc8Cl)cc7)n6)cc5)CC4)CC3)cc2F)C(=O)N1` [Compound 89, (S)-4-(4-(2-(1-(4-((4-((4-((2-chlorophenyl)carbamoyl)phenyl)amino)-5-fluoropyrimidin-2-yl)amino)benzamido)piperidin-4-yl)ethyl)piperazin-1-yl)-N-(2,6-dioxopiperidin-3-yl)-2-fluorobenzamide], the “luminescence value (Level)” value runs as follows: (10 nM compound) “B (B is 0.3 to 0.5)”; (100 nM compound) “B (B is 0.2 to 0.4)”.
For `O=C1CCC(c2ccc(N3CCN(CCC4CCN(NC(=O)c5ccc(Nc6ncc(F)c(Nc7ccc(C(=O)Nc8ccccc8Cl)cc7)n6)nc5)CC4)CC3)cc2)C(=O)N1` (stereo not shown) [Compound 91, 6-[[4-[4-[(2-chlorophenyl)carbamoyl]anilino]-5-fluoro-pyrimidin-2-yl]amino]-N-[4-[2-[4-[4-(2,6-dioxo-3-piperidyl)phenyl]piperazin-1-yl]ethyl]-1-piperidyl]pyridine-3-carboxamide] the same measures were “D (D is 0.7 to 0.8)” and “C (C is 0.4 to 0.6)”.
Consider `O=C1CCC(c2ccc(N3CCN(CCC4CCN(NC(=O)c5ccc(Nc6ncc(F)c(Nc7ccc(C(=O)NC8CCCCC8)cc7)n6)cc5)CC4)CC3)cc2)C(=O)N1` (stereo not shown) [Compound 92, N-cyclohexyl-4-((2-((4-((4-(2-(4-(4-(2,6-dioxopiperidin-3-yl)phenyl)piperazin-1-yl)ethyl)piperidin-1-yl)carbamoyl)phenyl)amino)-5-fluoropyrimidin-4-yl)amino)benzamide], for which the “luminescence value (Level)” value is, setting by setting: (10 nM compound) “B (B is 0.3 to 0.5)”; (100 nM compound) “A (A is <0.2)”.
For the compound `CN(C(=O)c1ccc(Nc2nc(Nc3ccc(C(=O)NN4CCC(CCN5CCN(c6ccc(C7CCC(=O)NC7=O)cc6)CC5)CC4)cc3)ncc2F)cc1)c1ccccc1Cl` (stereo not shown) [Compound 102, 4-[[4-[4-[(2-chlorophenyl)-methyl-carbamoyl]anilino]-5-fluoro-pyrimidin-2-yl]amino]-N-[4-[2-[4-[4-(2,6-dioxo-3-piperidyl)phenyl]piperazin-1-yl]ethyl]-1-piperidyl]benzamide], the “luminescence value (Level)” value was “B (B is 0.3 to 0.5)” (10 nM compound) and “A (A is <0.2)” (100 nM compound).
In the same order, the values of `O=C1CCC(c2ccc(N3CCN(CCC4CCN(NC(=O)c5ccc(Nc6ncc(F)c(Nc7ccc(C(=O)Nc8ccccc8Cl)cc7)n6)cc5F)CC4)CC3)cc2)C(=O)N1` (stereo not shown) [Compound 105, 4-[[4-[4-[(2-chlorophenyl)carbamoyl]anilino]-5-fluoro-pyrimidin-2-yl]amino]-N-[4-[2-[4-[4-(2,6-dioxo-3-piperidyl)phenyl]piperazin-1-yl]ethyl]-1-piperidyl]-2-fluoro-benzamide] are “B (B is 0.3 to 0.5)” and “A (A is <0.2)”.
In the same order, the values of `Cn1nc(C2CCC(=O)NC2=O)c2cc(F)c(N3CCN(CCC4CCN(NC(=O)c5ccc(Nc6ncc(F)c(Nc7ccc(C(=O)Nc8ccccc8Cl)cc7)n6)cc5)CC4)CC3)cc21` (stereo not shown) [Compound 107, N-(2-chlorophenyl)-4-((2-((4-((4-(2-(4-(3-(2,6-dioxopiperidin-3-yl)-5-fluoro-1-methyl-1H-indazol-6-yl)piperazin-1-yl)ethyl)piperidin-1-yl)carbamoyl)phenyl)amino)-5-fluoropyrimidin-4-yl)amino)benzamide] are “A (A is <0.3)” and “A (A is <0.2)”.
Regarding `COc1cc(N2CCN(CCC3CCN(NC(=O)c4ccc(Nc5ncc(F)c(Nc6ccc(C(=O)Nc7ccccc7Cl)cc6)n5)cc4F)CC3)CC2)c(F)cc1C1CCC(=O)NC1=O` (stereo not shown) [Compound 119, 4-((4-((4-((2-chlorophenyl)carbamoyl)phenyl)amino)-5-fluoropyrimidin-2-yl)amino)-N-(4-(2-(4-(4-(2,6-dioxopiperidin-3-yl)-2-fluoro-5-methoxyphenyl)piperazin-1-yl)ethyl)piperidin-1-yl)-2-fluorobenzamide], the “luminescence value (Level)” value is, setting by setting: (10 nM compound) “C (C is 0.5 to 0.7)”; (100 nM compound) “B (B is 0.2 to 0.4)”.
